Reference: patent publication US10807992B2, “Single enantiomer antiparasitic compounds” (priority 2017, dated 2020)
Read-outs that look alike come from different tables or passages of the source.

Assay: Plasma PK from oral tick and flea efficacy studies of the C1 racemate
Type: in vivo, Mongrel dogs
Details: for Cmax / AUC(0-t) / AUC(0-inf) / half-life / CL/F / Tmax: mongrel, dog, po; for Cmax / AUC(0-t) / AUC(0-inf) / half-life / CL/F / Tmax / tlast: plasma; for AUC(0-t): read-out: NCA AUC0-last
Text: However, the S- enantiomer plasma PK curves and calculated PK parameters conducted in beagle dogs differed from oral efficacy studies conducted on the racemate dosed in mongrels.
Pharmacokinetic results from the compound C1 (S) enantiomer PK study differed from racemic efficacy studies. Average plasma pharmacokinetic parameters from the compound C1 (S) enantiomer PK study described in this document are compared to those from oral efficacy studies of the racemate in Table 6.

[1] = 10 mg/kg, Flea Efficacy study, oral 10 mg/kg
[2] = 10 mg/kg, Tick Efficacy study, oral 10 mg/kg
[3] = 20 mg/kg, Flea Efficacy study, oral 20 mg/kg
[4] = 20 mg/kg, Tick Efficacy study, oral 20 mg/kg

## O=C(CC(F)(F)F)N1CC2(C1)OCc1cc(C3=NSC(c4cc(Cl)c(F)c(Cl)c4)(C(F)(F)F)C3)ccc12 (racemic) [C1 racemate, 1-[6-[5-(3,5-dichloro-4-fluoro-phenyl)-5-(trifluoromethyl)-4H-isothiazol-3-yl]spiro[1H-isobenzofuran-3,3′-azetidine]-1′-yl]-3,3,3-trifluoro-propan-1-one]
dogs, oral
  absorption and elimination in dogs: well-absorbed compound with an extended elimination half-life in dogs
10 mg/kg, Mongrel, Flea Efficacy study, oral 10 mg/kg, read-out: Cmax
  Cmax: 3470 ng/mL
10 mg/kg, Mongrel, Flea Efficacy study, oral 10 mg/kg
  AUC(0-t): 266 µg·h/mL
10 mg/kg, Mongrel, Flea Efficacy study, oral 10 mg/kg, read-out: NCA AUC0-∞
  AUC(0-inf): 361 µg·h/mL
10 mg/kg, Mongrel, Flea Efficacy study, oral 10 mg/kg, read-out: t1/2 (converted)
  half-life: 23.8 days
10 mg/kg, Mongrel, Tick Efficacy study, oral 10 mg/kg, read-out: Cmax
  Cmax: 3780 ng/mL
10 mg/kg, Mongrel, Tick Efficacy study, oral 10 mg/kg
  AUC(0-t): 344 µg·h/mL
10 mg/kg, Mongrel, Tick Efficacy study, oral 10 mg/kg, read-out: NCA AUC0-∞
  AUC(0-inf): 395 µg·h/mL
10 mg/kg, Mongrel, Tick Efficacy study, oral 10 mg/kg, read-out: t1/2 (converted)
  half-life: 16.4 days
10 mg/kg, range over racemate efficacy studies, at 10 mg/kg, read-out: plasma area under the curve extrapolated to infinity (AUC0-∞)
  AUC(0-inf): 361 to 395 µg·h/mL
10 mg/kg, range over racemate efficacy studies, dosed at 10 mg/kg, read-out: plasma Cmax
  Cmax: 3470 to 3780 ng/mL
[1]
  CL/F: 0.643 mL/min/kg
  Tmax: 0.0417 days
[2]
  CL/F: 0.502 mL/min/kg
  Tmax: 0.125 days
20 mg/kg, Mongrel, Flea Efficacy study, oral 20 mg/kg, read-out: Cmax
  Cmax: 4740 ng/mL
20 mg/kg, Mongrel, Flea Efficacy study, oral 20 mg/kg
  AUC(0-t): 463 µg·h/mL
20 mg/kg, Mongrel, Flea Efficacy study, oral 20 mg/kg, read-out: NCA AUC0-∞
  AUC(0-inf): 525 µg·h/mL
20 mg/kg, Mongrel, Flea Efficacy study, oral 20 mg/kg, read-out: t1/2 (converted)
  half-life: 14.9 days
20 mg/kg, Mongrel, Tick Efficacy study, oral 20 mg/kg, read-out: Cmax
  Cmax: 6240 ng/mL
20 mg/kg, Mongrel, Tick Efficacy study, oral 20 mg/kg
  AUC(0-t): 494 µg·h/mL
20 mg/kg, Mongrel, Tick Efficacy study, oral 20 mg/kg, read-out: NCA AUC0-∞
  AUC(0-inf): 674 µg·h/mL
20 mg/kg, Mongrel, Tick Efficacy study, oral 20 mg/kg, read-out: t1/2 (converted)
  half-life: 23.8 days
[3]
  CL/F: 0.737 mL/min/kg
  Tmax: 0.0417 days
[4]
  CL/F: 0.693 mL/min/kg
  Tmax: 0.0833 days
Range over racemate efficacy studies, read-out: half-life
  half-life: 14.9 to 23.8 days
Range over racemate efficacy studies
  CL/F: 0.5 to 0.733 mL/min/kg
Mongrel, Flea Efficacy study, oral 10 mg/kg
  tlast: 1032 h
Mongrel, Flea Efficacy study, oral 20 mg/kg
  tlast: 1032 h
Mongrel, Tick Efficacy study, oral 10 mg/kg
  tlast: 1056 h
Mongrel, Tick Efficacy study, oral 20 mg/kg
  tlast: 1056 h
